Laboratory results as given in US20240041042A1, “1-(PYRIDYL)-5-AZINYLPYRAZOLE DERIVATIVES, AND THEIR USE FOR CONTROL OF UNDESIRED PLANT GROWTH” (Bayer Aktiengesellschaft, priority 2020, published 2024).
Read-outs that look alike come from different tables or passages of the source.

What was measured:
Format in all cases: in vivo
[1] = test system: Verconica persica (VERPE); assay: Pre-emergence herbicidal action against VERPE; details: dosage 320 g/ha
Method in brief: (§1)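 Pre-emergence soil-surface spray of compound, formulated as wettable powder or emulsion concentrate, in aqueous suspension or emulsion with 0.5% additive (600 l/ha; rate 320 g/ha or less). Activity rated visually after roughly 3 weeks in the greenhouse as a percentage of untreated controls, 0% meaning no difference.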

Lolium rigidum (LOLRI) [2] = assay: Post-emergence herbicidal action against LOLRI; details: dosage 320 g/ha
Method in brief: (§2)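 Values are percent visual activity (0% like control, 100% plants dead) after about 3 weeks in the greenhouse. Treatment: post-emergence spray at one-leaf stage, 600 l/ha spray volume, 0.5% additive, doses 320 g/ha or lower.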

[3] = test system: Polygonum convolvulus (POLCO); assay: Pre-emergence herbicidal action against POLCO; details: dosage 320 g/ha
Method in brief: as §1

Viola tricolor (VIOTR) [4] = assay: Post-emergence herbicidal action against VIOTR
Method in brief: as §2

Avena fatua (AVEFA) [5] = assay: Pre-emergence herbicidal action against AVEFA; details: 320 g/ha, visual scoring after about 3 weeks vs untreated controls
Method in brief: as §1

Zea mays (ZEAMX) [6] = details: crop plant compatibility, effect vs untreated controls
Method in brief: (§3)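 Foliar application at the one-leaf stage: WP/EC formulation, 0.5% additive, 600 l/ha water. Greenhouse-grown in sandy loam. Endpoint is visual % injury relative to untreated controls at about 3 weeks.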

Oryza sativa (ORYSA) [7] = details: crop plant compatibility, effect in comparison to untreated controls
Method in brief: as §3

[8] = test system: Pharbitis purpurea (PHBPU); assay: Pre-emergence herbicidal action against PHBPU; details: dosage 320 g/ha
Method in brief: as §1

Setaria viridis (SETVI) = assay: Post-emergence herbicidal action against SETVI; details: dosage 320 g/ha
Method in brief: as §2

[9] = test system: Amaranthus retroflexus (AMARE); assay: Pre-emergence herbicidal action against AMARE; details: 320 g/ha, visual scoring after about 3 weeks vs untreated controls
Method in brief: as §1

[10] = test system: Alopecurus myosuroides (ALOMY); assay: Post-emergence herbicidal action against ALOMY; details: 320 g/ha, visual rating about 3 weeks after treatment vs untreated controls (100% = plants have died, 0% = like control plants)
Method in brief: as §2

[11] = test system: Polygonum convolvulus (POLCO); assay: Post-emergence herbicidal action against POLCO
Method in brief: as §2

[12] = test system: Echinochloa crus-galli (ECHCG); assay: Post-emergence herbicidal action against ECHCG
Method in brief: as §2

Viola tricolor (VIOTR) [13] = assay: Pre-emergence herbicidal action against VIOTR; details: 320 g/ha, Viola tricolor
Method in brief: as §1

Lolium rigidum (LOLRI) [14] = assay: Pre-emergence herbicidal action against LOLRI; details: dosage 320 g/ha
Method in brief: as §1

[15] = test system: Alopecurus myosuroides (ALOMY); assay: Pre-emergence herbicidal action against ALOMY; details: 320 g/ha; scored visually after about 3 weeks; 100% = plants have died
Method in brief: as §1

Zea mays (ZEAMX) [16] = details: pre-emergence, crop plant compatibility, in comparison to untreated controls
Method in brief: (§4)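 Scoring: visual, % of untreated control, about 3 weeks after a pre-emergence application to the soil surface. Application used WP or EC formulations diluted in water with 0.5% additive at 600 l/ha; dosage levels are marked by suffixes a, b and c.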

Oryza sativa (ORYSA) [17] = details: pre-emergence, crop plant compatibility, in comparison to untreated controls
Method in brief: as §4

Brassica napus (BRSNW) = details: crop plant compatibility, in comparison to untreated controls
Method in brief: as §4

[18] = test system: Amaranthus retroflexus (AMARE); assay: Post-emergence herbicidal action against AMARE
Method in brief: as §2

Avena fatua (AVEFA) [19] = assay: Post-emergence herbicidal action against AVEFA; details: 320 g/ha, visual rating about 3 weeks after treatment
Method in brief: as §2

[20] = test system: Verconica persica (VERPE); assay: Post-emergence herbicidal action against VERPE
Method in brief: as §2

[21] = test system: Triticum aestivum (TRZAS); details: crop plant compatibility, 80 g/ha, effect vs untreated controls
Method in brief: as §3

[22] = test system: Digitaria sanguinalis (DIGSA); assay: Pre-emergence herbicidal action against DIGSA; details: dosage 320 g/ha
Method in brief: as §1

[23] = test system: Triticum aestivum (TRZAS); details: pre-emergence, 80 g/ha, crop plant compatibility, in comparison to untreated controls
Method in brief: as §4

[24] = 320 g/ha, visual rating about 3 weeks after treatment

| Post-emergence action against ZEAMX in % (Zea mays (ZEAMX) [6]; 80 g/ha) [%] | Post-emergence action against ZEAMX in % (Zea mays (ZEAMX) [6]; 320 g/ha) [%] | Post-emergence action against ORYSA in % (Oryza sativa (ORYSA) [7]; 80 g/ha) [%] | Pre-emergence action against ZEAMX in % (Zea mays (ZEAMX) [16]; 80 g/ha) [%] | Pre-emergence action against ORYSA in % (Oryza sativa (ORYSA) [17]; 80 g/ha) [%] | Pre-emergence action against BRSNW in % (Brassica napus (BRSNW); 80 g/ha) [%] | Post-emergence action against TRZAS in % [21] [%] | Pre-emergence action against ORYSA in % (Oryza sativa (ORYSA) [17]; 320 g/ha) [%] | Structure (SMILES) | Post-emergence action against VIOTR in % (Viola tricolor (VIOTR) [4]; 320 g/ha) [%] | Pre-emergence action against AMARE in % [9] [%] | Post-emergence action against ECHCG in % ([12]; dosage 320 g/ha) [%] | Pre-emergence action against ALOMY [15] [%] | Post-emergence action against AMARE in % [18, 24] [%] | Post-emergence action against AVEFA in % (Avena fatua (AVEFA) [19]) [%] | Post-emergence action against VERPE in % ([20]; 320 g/ha, VERPE) [%] | other results |
| --- | --- | --- | --- | --- | --- | --- | --- | --- | --- | --- | --- | --- | --- | --- | --- | --- |
| 0 | 20 | 0 | 20 | 0 | 0 | – | – | CCOC(=O)COc1nn(-c2ncccc2C(F)(F)F)c(-c2ccc(F)nc2)c1Br [Example I-335] | 90 | 90 | 90 | 80 | 80 | 90 | 90 | Pre-emergence action against VERPE in % [1]: 80%; Post-emergence action against LOLRI in % (Lolium rigidum (LOLRI) [2]): 90%; Pre-emergence action against POLCO in % [3]: 90%; Post-emergence action against VIOTR in % (Viola tricolor (VIOTR) [4]; 80 g/ha): 80%; Pre-emergence action against AVEFA in % (Avena fatua (AVEFA) [5]): 80%; Pre-emergence action against PHBPU in % [8]: 80%; Post-emergence action against SETVI in % (Setaria viridis (SETVI)): 90%; Post-emergence action against ALOMY in % [10]: 100%; Post-emergence action against POLCO in % ([11]; dosage 80 g/ha): 80%; Post-emergence action against POLCO in % ([11]; dosage 320 g/ha): 80%; Post-emergence action against ECHCG in % ([12]; dosage 80 g/ha): 80%; Pre-emergence action against VIOTR in % (Viola tricolor (VIOTR) [13]): 100%; Pre-emergence action against LOLRI in % (Lolium rigidum (LOLRI) [14]): 90%; Pre-emergence action against BRSNW in % (Brassica napus (BRSNW); 320 g/ha): 0%; Post-emergence action against AMARE in % ([18]; 80 g/ha, visual rating about 3 weeks after treatment vs untreated controls (100% = plants have died, 0% = like control plants)): 80%; Post-emergence action against VERPE in % ([20]; dosage 80 g/ha): 90% |
| – | 0 | – | 10 | 10 | 20 | 10 | 20 | COC(=O)C=CC(C)NC(=O)COc1nn(-c2ccccn2)c(-c2ccc(F)nc2)c1Br (stereo not shown) [Example I-297] | – | 80 | – | 80 | – | – | 80 | Pre-emergence action against DIGSA in % [22]: 80% |
| 0 | 0 | 0 | 10 | 0 | 0 | 0 | 0 | CCOC(=O)COc1nn(-c2ccnc(F)c2)c(-c2ccc(F)nc2)c1Br [III-01] | 80 | – | 80 | – | 80 | 80 | 80 | Post-emergence action against ORYSA in % (Oryza sativa (ORYSA) [7]; 320 g/ha): 0%; Pre-emergence action against TRZAS in % [23]: 0%; Pre-emergence action against ZEAMX in % (Zea mays (ZEAMX) [16]; 320 g/ha): 20% |
